Experimental data taken from publication PMC4444023 (PLoS ONE, 2015).
“Also recorded” adds a separate entry of the source.

Columns and labels:
[1] = test system: rat primary cortical neurons; experiment: Lipid extraction and ceramide measurements (LC-MS/MS); format: cell-based; conditions: rat primary neurons, TNF-α
Procedure: Primary cortical neurons were prepared from embryonic day 18 Sprague-Dawley rats following previously described methods. […] A crude lipid extract from cortical neurons was obtained using a modified Bligh and Dyer procedure. Ceramide C12:0 (Avanti Polar Lipids) was included as an internal standard. The organic layers were dried in a nitrogen evaporator (Organomation Associates Inc.) and stored at -80°C. Dried organic layers were resuspended in methanol just prior to analysis. The detection and quantitation of individual ceramide species was performed on a high-performance liquid chromatography (HPLC) coupled electrospray ionization triple quadrupole mass spectrometer (API3000, AB Sciex Inc.) using settings similar to those described in previous studies. Samples were handled by a CTC PAL autosampler (LEAP Technologies Inc.) and injected into an HPLC (PerkinElmer) equipped with a reverse phase C18 column (Phenomex). […] The eluted sample was injected into the electrospray ionization source and detection of each ceramide species was conducted by multiple reaction monitoring. Spectral analysis was conducted using MultiQuant (AB Sciex Inc.), individually validated and normalized to the internal standard. Final data for each ceramide species in counts per second was expressed as the ratio of analyte/internal standard.

rat nSMase2 = target: T1, rat nSMase2 (Rattus norvegicus, UniProt O35049); experiment: Fluorescence assay with rat brain homogenate membrane fraction; format: biochemical; conditions: rat brain homogenates
T1 construct: A membrane protein-enriched fraction of rat brain homogenate was used as the source for nSMase2; from tissue; host or cells: rat brain homogenate, membrane protein-enriched fraction
T1 sequence (O35049 1-655): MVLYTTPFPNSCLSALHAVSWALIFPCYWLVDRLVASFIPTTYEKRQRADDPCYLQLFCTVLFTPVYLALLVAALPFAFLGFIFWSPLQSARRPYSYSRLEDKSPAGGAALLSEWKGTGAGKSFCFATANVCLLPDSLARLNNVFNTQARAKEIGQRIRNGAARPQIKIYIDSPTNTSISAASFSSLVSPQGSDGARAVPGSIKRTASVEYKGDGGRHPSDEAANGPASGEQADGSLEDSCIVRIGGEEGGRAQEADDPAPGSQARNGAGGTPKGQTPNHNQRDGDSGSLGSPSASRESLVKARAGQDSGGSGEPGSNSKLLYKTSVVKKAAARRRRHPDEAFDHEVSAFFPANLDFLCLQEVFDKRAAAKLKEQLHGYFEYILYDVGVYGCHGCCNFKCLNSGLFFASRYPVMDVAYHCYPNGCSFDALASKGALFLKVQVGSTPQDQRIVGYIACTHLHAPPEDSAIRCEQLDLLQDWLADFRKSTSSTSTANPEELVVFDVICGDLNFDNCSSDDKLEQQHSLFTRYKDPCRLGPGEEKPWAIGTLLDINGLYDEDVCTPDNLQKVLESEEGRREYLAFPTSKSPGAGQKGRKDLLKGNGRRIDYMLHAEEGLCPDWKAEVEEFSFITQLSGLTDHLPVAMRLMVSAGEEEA

SIRT1 = conditions: NAD-dependent deacetylase activity; cited from earlier work
aSMase = target: aSMase; set-up: method as in earlier work; conditions: ref personal communication with Drs. Marc Ferrer and Wei Zheng, NCATS; cited from earlier work
human nSMase2 = target: T2, human nSMase2 (Homo sapiens, UniProt Q9NY59); experiment: Time dependence study of cambinol inhibitory activity; format: biochemical; set-up: Full length human nSMase2 cDNA with a C-terminal Flag tag; host or cells: HEK293, stably transfected; crude cell lysate used as enzyme; conditions: pre-incubation up to 2 h
T2 sequence (Q9NY59 1-655): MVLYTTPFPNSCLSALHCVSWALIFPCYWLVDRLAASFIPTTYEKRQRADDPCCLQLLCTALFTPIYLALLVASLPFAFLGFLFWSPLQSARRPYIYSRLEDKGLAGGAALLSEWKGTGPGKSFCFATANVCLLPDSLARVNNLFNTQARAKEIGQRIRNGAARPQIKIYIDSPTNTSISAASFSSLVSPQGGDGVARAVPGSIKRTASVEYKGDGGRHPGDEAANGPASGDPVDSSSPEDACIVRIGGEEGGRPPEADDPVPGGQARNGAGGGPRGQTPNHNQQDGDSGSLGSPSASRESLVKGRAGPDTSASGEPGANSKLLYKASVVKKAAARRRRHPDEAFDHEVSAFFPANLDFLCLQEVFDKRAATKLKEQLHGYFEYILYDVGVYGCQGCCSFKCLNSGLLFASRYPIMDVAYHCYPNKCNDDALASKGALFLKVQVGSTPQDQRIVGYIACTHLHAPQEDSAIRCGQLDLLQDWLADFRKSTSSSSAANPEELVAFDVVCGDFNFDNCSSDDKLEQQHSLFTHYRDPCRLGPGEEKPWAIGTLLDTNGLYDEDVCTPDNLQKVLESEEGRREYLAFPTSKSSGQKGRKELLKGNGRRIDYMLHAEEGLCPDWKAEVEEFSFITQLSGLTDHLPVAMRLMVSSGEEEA
Procedure: ^bCambinol IC50 values were determined from 8-points dose response curves run in duplicate.

macrophages = conditions: cited from earlier work

Q: Which results are given for `O=c1[nH]c(=S)[nH]c(-c2ccccc2)c1Cc1c(O)ccc2ccccc12` [Cambinol, cambinol]?
A: effect on cytokine-induced increase of ceramide (words) [1]: decreased; effect on cytokine-induced increase of ceramide (words) ([1]; listed as cambinol): dose dependently block; also recorded: blocked; IC50 (rat nSMase2): 6 µM; IC50 (SIRT1): 56 µM; IC50 (aSMase): > 10 µM; time dependence of inhibition (human nSMase2): did not change; also recorded: independent of pre-incubation time; TNF-α and IL-6 release (macrophages): effectively inhibited
